In publication PMC5478857, “Metabolic Products of Linalool and Modulation of GABAA Receptors” (Frontiers in Chemistry, 2017):

System: T1, GABAA receptor α1β2γ2
T1 construct: gene GABRA1; α1β2γ2 heteromer transiently expressed in HEK293 cells; with GABAA receptor β2 and γ2 subunits
Test: whole-cell patch clamp, […] co-applied with […] GABA ([…] of GABA current, P < […])
Format: cell-based

In the case of C=CC(C)(O)CCC=C(C)C (stereo not shown) [Linalool, 3,7-dimethyl-1,6-octadiene-3-ol], the “% of GABA current at 2 mM” value is reported as 160 ± 14 % of GABA current at 2 mM.
